Where “and” joins values, the source holds several entries; their conditions need not be identical. Equal entries are not always repeated. One block for each substance: values may come before it.
Experiments:
[1] = tested on: cholesterol present in a cell population; test: Filipin staining of cellular cholesterol; assay type: cell-based; details: for cholesterol content of cells by filipin stain: after 4 days of maintenance, 100× (FIG. 11A-D)
Method: To further address the mechanism by which cyclodextrin treatment can decrease the concentration of lipofuscin in cells, filipin staining experiments were performed (FIG. 10A-D, FIG. 11A-D, and FIG. 12A-D). Filipin stain can be used to visualize the cholesterol present in a cell population. FIG. 10A and FIG. 10C provide representative photomicrographs of two different cell populations before confluency. Four days after the time the micrographs in FIG. 10A and FIG. 10C were produced, a filipin stain was applied to both cell populations (FIG. 10B and FIG. 10D), however, in the case of FIG. 10D, the cell population was treated with cyclodextrin for 3.5 hours before the filipin staining procedure. […] In order to measure the effects of long term cyclodextrin treatment, untreated healthy cells (NC), healthy cells treated with cyclodextrin (NC w/CD), untreated cells loaded with lipofuscin (PC), and cells loaded with lipofuscin and treated with cyclodextrin (PC w/CD) were filipin stained and imaged at 100× magnification after 4 days of maintenance (FIG. 11A-D) and were filipin stained and imaged at 200× magnification after 9 days of cell maintenance (FIG. 12A-D).

[2] = tested on: NC and PC cell populations; test: Cell survival after exposure to lysomotropic agent MSDH; assay type: cell-based; details: for cell survival after MSDH: 45 μM MSDH for 42 hours; for cell death after MSDH: 55 μM MSDH for 42 hours
Method: To further elucidate the mechanism by which cyclodextrin can decrease the concentration of lipofuscin in cells, an assay in which the lysomotropic agent MSDH was administered to cells in order to measure the effect of cyclodextrin administration on cellular health post-MSDH treatment was performed (FIG. 13A-D and FIG. 14A-D). FIG. 13A-D provides representative photomicrographs of NC, PC, NC w/CD, and PC w/CD cell populations after 42 hours of exposure to 45 μM of MSDH. […] FIG. 14A-D provides representative photomicrographs of NC (FIG. 14A), PC (FIG. 14B), NC w/CD (FIG. 14C), and PC w/CD (FIG. 14D) cell populations, respectively, after the populations were exposed to an increased level of MSDH for an increased […] (55 μM for 42 hours). […] The results of FIG. 14A-D were indicative of different degrees of lysosomal membrane cholesterol composition change pending cyclodextrin treatment and lipofuscin levels, with the aged lipofuscin loaded cells treated with cyclodextrin being the most resistant to MSDH treatment (FIG. 14D).

fibroblasts [3] = test: Fluorescence imaging of native lipofuscin in fibroblasts; assay type: cell-based; details: for native lipofuscin autofluorescence versus untreated cells: fibroblasts maintained 16 days, cyclodextrin during days 1-8 (FIG. 7A-B)
Method: Healthy fibroblasts were passaged (˜P25) and grown to confluency in media. The cells in FIG. 7A (“untreated”) were maintained for 16 days; likewise, the cells in FIG. 7B (“treated”) were maintained for 16 days, however, cyclodextrin was added to the treated cells during days 1-8. Following the 16 day period of cell maintenance, lipofuscin levels were observed using fluorescence imaging as lipofuscin appears as a bright red autofluorescent material during fluorescence-based imaging. […] In order to ascertain whether or not the untreated or treated fibroblasts appeared healthy after the 16 day period of maintenance, both the untreated and treated fibroblasts were imaged with 60× magnification using light microscopy.

THP-1 cells = test: Acridine orange uptake assay for lysosomal membrane permeabilization; assay type: cell-based
Method: To prepare FIG. 3A-B, THP-1 cells were exposed to different LDL treatments over 7 days and then assessed for lysosomal membrane permeabilization using an acridine orange uptake assay. In FIG. 3A: Acridine orange was excited at 488 nm and emissions recorded at 633 and 520 nm. Higher signal intensities at 520 nm and lower intensities at 633 nm were indicative of lysosomal instability. 7KC-LDL induced lysosomal membrane permeabilization that was attenuated by HβCD that was added to samples on day 6. In FIG. 3B: Flow cytometry signal are presented as intensities as a percent of control (normal LDL-treated). […] Although both the 633 nm and 520 nm signal intensities decreased after HβCD amendment for oxLDL and 7KC-LDL, the decrease in the 520 nm signal was of greater magnitude, thereby indicating increased lysosomal stability.

[4] = tested on: lipofuscin loaded cells (PC cells) (human skin fibroblasts); test: Autofluorescence of lipofuscin loaded cells (removal of pre-existing lipofuscin); assay type: cell-based; details: PC cells treated day 5 to day 10 and further 48 hours; untreated 13%; p 0.05
Method: FIG. 6 provides representative quantified data of the autofluorescence of lipofuscin loaded cells (PC cells) (human skin fibroblasts, Coriell Cell Repositories, Catalog #GM00498) either untreated or treated with CD in order to track the removal of lipofuscin already present within the PC cells. To perform the assay, PC cells were allowed to grow for 5 days, and the PC cells were treated such that lipofuscin was produced only from day 1 through […]. After 5 days, one population of cells (“treated population”, PC+cyclodextrin in FIG. 6) was treated with cyclodextrin from day 5 to day 10, whereas a second population of cells (“untreated population”, PC only in FIG. 6) remained untreated from day 5 to day 10. On day 10, lipofuscin levels were measured for both cell populations. Following this measurement, the untreated population was placed in media only for 48 hours whereas the treated population was placed in media containing cyclodextrin for 48 hours. 48 hours following this transfer of the cell populations to their respective media, the lipofuscin levels of both the untreated and treated populations were again measured. […] The p-value comparing the percentage differences between the treated and untreated populations was 0.05. […]

[5] = tested on: human skin cells (human fibroblast cells); test: Flow cytometry of non-bisretinoid lipofuscin content per cell; assay type: cell-based; details: for total non-bisretinoid lipofuscin content, Average / total non-bisretinoid lipofuscin content, individual samples 1-4: 2HPβCD for five days
Text: Table 3 and FIG. 4 presents data obtained from the treatment of human fibroblast cells with 10 rng/ml 2HPβCD for five days.
The values of Table 3 represent total non-bisretinoid lipofuscin content measured in fluorescent units per cell using a BD FACSCANTO™ II flow cytometer (BD Biosciences, San Jose, Calif.). Measurements were made with a 488 nm blue argon laser with a 530/30 nm FITC band pass filter. The total cell population size for each individual sample measurement was n>15,000 cells.

ULK1 = test: RT-PCR analysis of major lysosome genes; assay type: cell-based; details: NC w/CD and PC w/CD at day 10 compared to PC
Method: (§1) To address the mechanisms by which cyclodextrin treatment can remove lipofuscin from cells, a RT-PCR analysis of major lysosome genes was performed (FIG. 9). Healthy cells treated with cyclodextrin (“NC w/CD”), lipofuscin loaded cells (“PC”), and lipofuscin loaded cells treated with cyclodextrin (“PC w/CD”) were maintained for 10 days. Following the 10 day period, RT-PCR was performed on each cell population in order to ascertain the regulation status of the major lysosome genes ULK1, TFEB, and HMOX.

TFEB = test: RT-PCR analysis of major lysosome genes; assay type: cell-based; details: NC w/CD and PC w/CD at day 10 compared to PC
Method: as §1

human skin fibroblasts = test: CCK-8 cell viability assay; assay type: cell-based; details: days 4, 7 and 10; NC+CD and T versus NC and PC
Method: In order to determine whether cells were still viable when treated with cyclodextrin, a CCK-8 assay was performed on cells (human skin fibroblasts, Coriell Cell Repositories, Catalog #GM00498) over the course of a 10 days period (FIG. 8). On each day 4, day 7, and day 10, the viability of the cells was ascertained through a CCK-8 assay whereby colorimetric change was indicative of change in the cell viability status. The cell populations tested on day 4, day 7, and day 10 were healthy negative control cells (NC), healthy cells treated with cyclodextrin (NC+CD), lipofuscin loaded cells (PC), and lipofuscin loaded cells treated with cyclodextrin (T). […] FIG. 8 also presents blanks that were used as controls (the blanks appear circled in red in FIG. 8).

fibroblasts [6] = test: Confocal microscopy of lipofuscin in fibroblasts; assay type: cell-based; details: after 8 days (FIG. 5)
Text: FIG. 5 provides representative confocal photomicrographs wherein the accumulation of lipofuscin in fibroblasts that were either treated with HPβCD or were not treated with HPβCD was fluorescently imaged over the course of 8 days.

cultured cells = details: cited from earlier work
[7] = Aged Human Skin Cells + 2-HPCD (Test)
[8] = Human Skin Cells + 2-HPCD (Negative Control + Drug)

appearance of treated fibroblasts by light microscopy (fibroblasts [3]; after 16 day period, 60× magnification (FIG. 7C-D)): appeared to be healthy
Substance: 2-hydroxypropyl-β-cyclodextrin [HPβCD]
cholesterol content of cells by filipin stain [1]: increased
cholesterol content of cells by filipin stain ([1]; listed as cyclodextrin): reduction of the cholesterol content
overall cellular levels of cholesterol by filipin stain ([1]; long term treatment, after 9 days of maintenance, 200× (FIG. 12A-D)): increase the overall cellular levels of cholesterol
total cholesterol by filipin stain ([1]; treated for 3.5 hours before staining (FIG. 10D vs 10B)): reduction in total cholesterol
cell survival after MSDH ([2]; NC w/CD (healthy cells), untreated NC killed): able to survive
cell death after MSDH ([2]; NC w/CD (healthy cells), untreated NC complete death): moderate death
cell survival after MSDH ([2]; PC w/CD (lipofuscin loaded cells)): able to survive
cell death after MSDH ([2]; PC w/CD (lipofuscin loaded cells), untreated PC moderate death): no death
native lipofuscin autofluorescence versus untreated cells (fibroblasts [3]): visibly decreased
native lipofuscin autofluorescence versus untreated cells (fibroblasts [3]; listed as cyclodextrin): significantly reduced
lysosomal destabilization/permeability caused by 7-ketocholesterol (7KC-LDL) (THP-1 cells; LDL treatments over 7 days, HβCD added on day 6 (FIG. 3A)): attenuated
633 nm/520 nm ratio of acridine orange signal (THP-1 cells; nLDL, oxLDL and 7KC-LDL (FIG. 3B)): improved
decrease in autofluorescence from day 10 to day 12 [4]: 23%
total non-bisretinoid lipofuscin content, Average [5, 7]: 6131 fluorescent units per cell
total non-bisretinoid lipofuscin content, individual samples 1-4 [5, 7]: 6278 fluorescent units per cell and 6453 fluorescent units per cell and 5982 fluorescent units per cell and 5809 fluorescent units per cell
total non-bisretinoid lipofuscin content, Average [5, 8]: 2600 fluorescent units per cell
total non-bisretinoid lipofuscin content, individual samples 1-4 [5, 8]: 2552 fluorescent units per cell and 2564 fluorescent units per cell and 2638 fluorescent units per cell and 2647 fluorescent units per cell
lipofuscin levels by flow cytometry fluorescence (in words) ([5]; aged human skin cells, 5-day treatment (FIG. 4)): decreased
reduction of non-bisretinoid lipofuscin ([5]; aged human skin cells, 5-day treatment, p<0.00001): 31.4%
regulation of ULK1 (ULK1): no upregulation
regulation of TFEB (TFEB): no upregulation
cell viability, colorimetric change in CCK-8 assay (human skin fibroblasts): no visible colorimetric difference
lipopigment accumulation (fluorescence) versus untreated fibroblasts (fibroblasts [6]): lower lipopigment accumulation

Substance: methyl-β-cyclodextrin [MβCD]
efficiency of cholesterol removal compared with β-cyclodextrin (cultured cells): more efficient
